Experimental data taken from patent US20100215579A1, “PHEN-NAPHTHALENE AND PHEN-QUINOLINE DERIVATIVES AND THEIR USE FOR BINDING AND IMAGING AMYLOID PLAQUES” (The Trustees of the University of Pennsylvania, priority 2007, published 2010).

Tests used:
[1] = Log P (octanol/Na2HPO4 buffer pH 7.4); assay type: physicochemical; details: octanol/0.1 M Na2HPO4 buffer (pH 7.4)
[2] = Biodistribution in ICR mice after an iv injection; assay type: in vivo
Excerpt: Biodistribution in ICR Mice After an iv Injection of [^18F][4-(6-{2-[2-(2-Fluoro-ethoxy)-ethoxy]-ethoxy}-naphthalen-2-yl)-phenyl]-methyl-amine in 1% EtOH/0.1% BSA in Water
(% dose/organ, avg of 3 mice±SD)
(% dose/g, avg of 3 mice±SD)
Biodistribution in ICR Mice After an iv Injection of [^18F]19a in 3% EtOH/0.1% BSA in Water
Biodistribution in ICR Mice After an iv Injection of [^18F]34a in 5% EtOH/0.1% BSA in Water
Biodistribution in ICR Mice After an iv Injection of [^18F]32a in 1% EtOH/0.1% BSA in Water

[3] = Blood, 2 min after iv injection
[4] = Blood, 30 min after iv injection
[5] = Bone, 30 min after iv injection
[6] = Brain, 2 min after iv injection
[7] = Brain, 30 min after iv injection
[8] = Heart, 2 min after iv injection
[9] = Heart, 30 min after iv injection
[10] = Kidney, 2 min after iv injection
[11] = Kidney, 30 min after iv injection
[12] = Kidney, 1 hr after iv injection
[13] = Kidney, 2 hr after iv injection
[14] = Liver, 2 min after iv injection
[15] = Liver, 30 min after iv injection
[16] = Lung, 30 min after iv injection
[17] = Muscle, 2 min after iv injection
[18] = Muscle, 30 min after iv injection
[19] = Muscle, 1 hr after iv injection
[20] = Muscle, 2 hr after iv injection
[21] = Skin, 30 min after iv injection
[22] = Spleen, 2 min after iv injection
[23] = Spleen, 30 min after iv injection
[24] = Spleen, 1 hr after iv injection
[25] = Spleen, 2 hr after iv injection

Log P [1]: 2.77
% dose/g [2, 3]: 1.80 ± 0.28 % dose/g
% dose/organ [2, 3]: 3.32 ± 0.46 % dose/organ
% dose/g [2, 4]: 0.99 ± 0.12 % dose/g
% dose/organ [2, 4]: 1.80 ± 0.14 % dose/organ
% dose/g ([2]; Blood, 1 hr after iv injection): 1.37 ± 0.14 % dose/g
% dose/organ ([2]; Blood, 1 hr after iv injection): 2.40 ± 0.19 % dose/organ
% dose/g ([2]; Blood, 2 hr after iv injection): 1.13 ± 0.15 % dose/g
% dose/organ ([2]; Blood, 2 hr after iv injection): 2.00 ± 0.25 % dose/organ
% dose/g ([2]; Bone, 2 min after iv injection): 1.25 ± 0.06 % dose/g
% dose/organ ([2]; Bone, 2 min after iv injection): 4.63 ± 0.32 % dose/organ
% dose/g [2, 5]: 0.81 ± 0.11 % dose/g
% dose/organ [2, 5]: 2.92 ± 0.27 % dose/organ
% dose/g ([2]; Bone, 1 hr after iv injection): 1.11 ± 0.14 % dose/g
% dose/organ ([2]; Bone, 1 hr after iv injection): 3.91 ± 0.37 % dose/organ
% dose/g ([2]; Bone, 2 hr after iv injection): 1.47 ± 0.27 % dose/g
% dose/organ ([2]; Bone, 2 hr after iv injection): 5.19 ± 0.80 % dose/organ
% dose/g [2, 6]: 7.76 ± 1.25 % dose/g
% dose/organ [2, 6]: 3.56 ± 0.47 % dose/organ
% dose/g [2, 7]: 2.33 ± 0.68 % dose/g
% dose/organ [2, 7]: 1.07 ± 0.24 % dose/organ
% dose/g ([2]; Brain, 1 hr after iv injection): 1.92 ± 0.31 % dose/g
% dose/organ ([2]; Brain, 1 hr after iv injection): 0.86 ± 0.14 % dose/organ
% dose/g ([2]; Brain, 2 hr after iv injection): 1.45 ± 0.11 % dose/g
% dose/organ ([2]; Brain, 2 hr after iv injection): 0.66 ± 0.03 % dose/organ
% dose/g [2, 8]: 10.1 ± 1.14 % dose/g
% dose/organ [2, 8]: 1.36 ± 0.20 % dose/organ
% dose/g [2, 9]: 1.99 ± 0.43 % dose/g
% dose/organ [2, 9]: 0.26 ± 0.06 % dose/organ
% dose/g ([2]; Heart, 1 hr after iv injection): 2.07 ± 0.23 % dose/g
% dose/organ ([2]; Heart, 1 hr after iv injection): 0.25 ± 0.03 % dose/organ
% dose/g ([2]; Heart, 2 hr after iv injection): 1.28 ± 0.09 % dose/g
% dose/organ ([2]; Heart, 2 hr after iv injection): 0.15 ± 0.01 % dose/organ
% dose/g [2, 10]: 13.0 ± 3.04 % dose/g
% dose/organ [2, 10]: 5.25 ± 0.89 % dose/organ
% dose/g [2, 11]: 3.61 ± 0.65 % dose/g
% dose/organ [2, 11]: 1.55 ± 0.33 % dose/organ
% dose/g [2, 12]: 3.38 ± 0.38 % dose/g
% dose/organ [2, 12]: 1.24 ± 0.19 % dose/organ
% dose/g [2, 13]: 1.78 ± 0.06 % dose/g
% dose/organ [2, 13]: 0.73 ± 0.02 % dose/organ
% dose/g [2, 14]: 16.3 ± 4.96 % dose/g
% dose/organ [2, 14]: 19.4 ± 3.67 % dose/organ
% dose/g [2, 15]: 8.02 ± 0.65 % dose/g
% dose/organ [2, 15]: 11.2 ± 1.65 % dose/organ
% dose/g ([2]; Liver, 1 hr after iv injection): 8.10 ± 1.59 % dose/g
% dose/organ ([2]; Liver, 1 hr after iv injection): 9.75 ± 1.79 % dose/organ
% dose/g ([2]; Liver, 2 hr after iv injection): 5.22 ± 0.49 % dose/g
% dose/organ ([2]; Liver, 2 hr after iv injection): 6.34 ± 0.87 % dose/organ
% dose/g ([2]; Lung, 2 min after iv injection): 7.63 ± 0.46 % dose/g
% dose/organ ([2]; Lung, 2 min after iv injection): 1.54 ± 0.16 % dose/organ
% dose/g [2, 16]: 2.31 ± 0.42 % dose/g
% dose/organ [2, 16]: 0.42 ± 0.07 % dose/organ
% dose/g ([2]; Lung, 1 hr after iv injection): 2.21 ± 0.19 % dose/g
% dose/organ ([2]; Lung, 1 hr after iv injection): 0.40 ± 0.01 % dose/organ
% dose/g ([2]; Lung, 2 hr after iv injection): 1.43 ± 0.03 % dose/g
% dose/organ ([2]; Lung, 2 hr after iv injection): 0.27 ± 0.00 % dose/organ
% dose/g [2, 17]: 0.83 ± 0.19 % dose/g
% dose/organ [2, 17]: 8.87 ± 2.47 % dose/organ
% dose/g [2, 18]: 1.20 ± 0.28 % dose/g
% dose/organ [2, 18]: 12.3 ± 2.18 % dose/organ
% dose/g [2, 19]: 1.09 ± 0.09 % dose/g
% dose/organ [2, 19]: 11.0 ± 0.64 % dose/organ
% dose/g [2, 20]: 0.81 ± 0.14 % dose/g
% dose/organ [2, 20]: 8.16 ± 1.14 % dose/organ
% dose/g ([2]; Skin, 2 min after iv injection): 0.42 ± 0.06 % dose/g
% dose/organ ([2]; Skin, 2 min after iv injection): 1.68 ± 0.22 % dose/organ
% dose/g [2, 21]: 0.98 ± 0.33 % dose/g
% dose/organ [2, 21]: 3.86 ± 1.41 % dose/organ
% dose/g ([2]; Skin, 1 hr after iv injection): 0.94 ± 0.06 % dose/g
% dose/organ ([2]; Skin, 1 hr after iv injection): 3.53 ± 0.16 % dose/organ
% dose/g ([2]; Skin, 2 hr after iv injection): 0.82 ± 0.15 % dose/g
% dose/organ ([2]; Skin, 2 hr after iv injection): 3.11 ± 0.48 % dose/organ
% dose/g [2, 22]: 4.95 ± 0.78 % dose/g
% dose/organ [2, 22]: 0.51 ± 0.09 % dose/organ
% dose/g [2, 23]: 1.56 ± 0.28 % dose/g
% dose/organ [2, 23]: 0.15 ± 0.03 % dose/organ
% dose/g [2, 24]: 1.64 ± 0.13 % dose/g
% dose/organ [2, 24]: 0.15 ± 0.04 % dose/organ
% dose/g [2, 25]: 1.16 ± 0.07 % dose/g
% dose/organ [2, 25]: 0.09 ± 0.01 % dose/organ
Structure (SMILES): CN(C)c1ccc(-c2ccc3nc(OCCOCCOCC[18F])ccc3c2)cc1 [[^18F]32a]
